Marks after values point to notes of the source that are not given here.
How the values were obtained:
normotensive rats = test: Influence on blood pressure in the normotensive rats; type: in vivo, rat; settings: for DBP—diastolic blood pressure / SBP—systolic blood pressure: mean ± SD
Procedure: The experiment was performed according to the method described earlier. Normotensive Wistar rats were anesthetized with thiopental (75 mg/kg ip). The right carotid artery was cannulated with a polyethylene tube filled with heparin solution, using a Datamax apparatus (Columbus Instruments, Columbus, OH, USA). After 15 min of the stabilization period, the studied compounds were administered iv, and their effect on systolic and diastolic blood pressure was evaluated (Figure 4A).

α1-adrenergic receptors = test: α1-adrenoceptor radioligand binding assay ([3H]-prazosin, rat cortex); settings: rat cortex tissue, mean ± SEM
Procedure: The α1- and α2-adrenoceptor radioligand binding assays were performed on the rat cerebral cortex using previously described methods. […] The brains were homogenized using the ULTRA-TURRAX homogenizer in 10 mL of an ice-cold 50 mM Tris-HCl buffer (pH 7.6). The homogenates were centrifuged at 20,000× g for 20 min (0–4 °C). Subsequently, the cell pellet was resuspended in the Tris–HCl buffer and centrifuged again. Radioligand binding assays were carried out in plates (MultiScreen/Millipore). The final incubation mixture, with a volume of 300 μL, consisted of 240 μL of the tissue suspension, 30 μL of the radioligand solution, and 30 μL of the buffer containing 7–8 concentrations of the studied compounds. In order to measure the unspecific binding, 10 μM phentolamine (for [^3H]-prazosin) or 10 μM clonidine (for [^3H]-clonidine) were utilized. The incubation was completed by rapid filtration through Whatman GF/C filters using a vacuum manifold (Millipore). The filters were then washed twice with the assay buffer and placed in scintillation vials with a liquid scintillation cocktail. Radioactivity was measured in a WALLAC 1409 DSA liquid scintillation counter (Perkin Elmer, USA). All the assays were performed in duplicates, and the inhibitory constants (Ki) were calculated.

[1] = 0.5 mg/kg iv, 0 min (before administration)
[2] = 1.0 mg/kg iv, 0 min (before administration)
[3] = 2.5 mg/kg iv, 0 min (before administration)
[4] = 5.0 mg/kg iv, 0 min (before administration)

Cl.NC(=O)c1ccccc1OCCCCN1CCN(c2cccc(Cl)c2)CC1 [JJGW01, 2-{4-[4-(3-chlorophenyl)piperazin-1-ylo]butoxy}benzamide hydrochloride]
DBP—diastolic blood pressure (normotensive rats; [1]): 95.3 ± 12.6 mmHg | SBP—systolic blood pressure (normotensive rats; [1]): 130.7 ± 14.9 mmHg | DBP—diastolic blood pressure (normotensive rats; 0.5 mg/kg iv, 5 min): 88.5 ± 14.3 mmHg | SBP—systolic blood pressure (normotensive rats; 0.5 mg/kg iv, 5 min): 119.0 ± 13.4 mmHg | DBP—diastolic blood pressure (normotensive rats; 0.5 mg/kg iv, 10 min): 85.0 ± 13.6 mmHg | SBP—systolic blood pressure (normotensive rats; 0.5 mg/kg iv, 10 min): 115.7 ± 13.0 mmHg | DBP—diastolic blood pressure (normotensive rats; 0.5 mg/kg iv, 20 min): 84.8 ± 8.5 mmHg | SBP—systolic blood pressure (normotensive rats; 0.5 mg/kg iv, 20 min): 114.7 ± 8.8 mmHg | DBP—diastolic blood pressure (normotensive rats; 0.5 mg/kg iv, 30 min): 84.3 ± 6.9 mmHg | SBP—systolic blood pressure (normotensive rats; 0.5 mg/kg iv, 30 min): 114.5 ± 10.2 mmHg | DBP—diastolic blood pressure (normotensive rats; 0.5 mg/kg iv, 40 min): 86.0 ± 10.3 mmHg | SBP—systolic blood pressure (normotensive rats; 0.5 mg/kg iv, 40 min): 115.2 ± 12.6 mmHg | DBP—diastolic blood pressure (normotensive rats; 0.5 mg/kg iv, 50 min): 88.3 ± 15.3 mmHg | SBP—systolic blood pressure (normotensive rats; 0.5 mg/kg iv, 50 min): 116.8 ± 17.3 mmHg | DBP—diastolic blood pressure (normotensive rats; 0.5 mg/kg iv, 60 min): 86.8 ± 15.5 mmHg | SBP—systolic blood pressure (normotensive rats; 0.5 mg/kg iv, 60 min): 113.8 ± 16.1 mmHg | DBP—diastolic blood pressure (normotensive rats; [2]): 87.7 ± 11.2 mmHg | SBP—systolic blood pressure (normotensive rats; [2]): 112.5 ± 11.6 mmHg | decrease of the diastolic blood pressure (normotensive rats; 1 mg/kg iv, 40th min after administration): 16% | decrease of the diastolic blood pressure (normotensive rats; 1 mg/kg iv, 60th min after administration): 17% | DBP—diastolic blood pressure (normotensive rats; 1.0 mg/kg iv, 5 min): 80.2 ± 10.8 mmHg | SBP—systolic blood pressure (normotensive rats; 1.0 mg/kg iv, 5 min): 102.5 ± 9.5 ^d mmHg | DBP—diastolic blood pressure (normotensive rats; 1.0 mg/kg iv, 10 min): 79.0 ± 11.9 mmHg | SBP—systolic blood pressure (normotensive rats; 1.0 mg/kg iv, 10 min): 100.3 ± 10.4 ^d mmHg | DBP—diastolic blood pressure (normotensive rats; 1.0 mg/kg iv, 20 min): 77.5 ± 12.1 mmHg | SBP—systolic blood pressure (normotensive rats; 1.0 mg/kg iv, 20 min): 99.7 ± 11.3 ^c mmHg | DBP—diastolic blood pressure (normotensive rats; 1.0 mg/kg iv, 30 min): 75.7 ± 10.6 mmHg | SBP—systolic blood pressure (normotensive rats; 1.0 mg/kg iv, 30 min): 98.2 ± 10.4 ^c mmHg | DBP—diastolic blood pressure (normotensive rats; 1.0 mg/kg iv, 40 min): 73.8 ± 14.0 ^a mmHg | SBP—systolic blood pressure (normotensive rats; 1.0 mg/kg iv, 40 min): 95.7 ± 13.3 ^c mmHg | DBP—diastolic blood pressure (normotensive rats; 1.0 mg/kg iv, 50 min): 72.7 ± 11.6 mmHg | SBP—systolic blood pressure (normotensive rats; 1.0 mg/kg iv, 50 min): 95.5 ± 11.2 ^d mmHg | DBP—diastolic blood pressure (normotensive rats; 1.0 mg/kg iv, 60 min): 73.2 ± 11.3 ^a mmHg | SBP—systolic blood pressure (normotensive rats; 1.0 mg/kg iv, 60 min): 96.5 ± 10.6 ^c mmHg | decrease of the systolic blood pressure (normotensive rats; 1 mg/kg iv, between the 5th and 60th min after the injection): 9–15% | Adrenergic Receptors—pKi α1 (α1-adrenergic receptors): 8.40 ± 0.01

COc1ccccc1N1CCN(Cc2ccc(COc3ccccc3C(N)=O)cc2)CC1.Cl [JJGW12, 2-[(4-{[4-(2-metoxyphenyl)piperazin-1-ylo]methyl}phenyl)metoxy}benzamide hydrochloride]
DBP—diastolic blood pressure (normotensive rats; [3]): 95.0 ± 16.0 mmHg | SBP—systolic blood pressure (normotensive rats; [3]): 122.2 ± 15.6 mmHg | DBP—diastolic blood pressure (normotensive rats; 2.5 mg/kg iv, 5 min): 94.5 ± 16.5 mmHg | SBP—systolic blood pressure (normotensive rats; 2.5 mg/kg iv, 5 min): 120.7 ± 13.8 mmHg | DBP—diastolic blood pressure (normotensive rats; 2.5 mg/kg iv, 10 min): 87.5 ± 23.0 mmHg | SBP—systolic blood pressure (normotensive rats; 2.5 mg/kg iv, 10 min): 114.5 ± 10.6 mmHg | DBP—diastolic blood pressure (normotensive rats; 2.5 mg/kg iv, 20 min): 83.5 ± 22.4 mmHg | SBP—systolic blood pressure (normotensive rats; 2.5 mg/kg iv, 20 min): 109.7 ± 9.3 mmHg | DBP—diastolic blood pressure (normotensive rats; 2.5 mg/kg iv, 30 min): 84.0 ± 21.4 mmHg | SBP—systolic blood pressure (normotensive rats; 2.5 mg/kg iv, 30 min): 106.5 ± 13.1 mmHg | DBP—diastolic blood pressure (normotensive rats; 2.5 mg/kg iv, 40 min): 87.8 ± 16.7 mmHg | SBP—systolic blood pressure (normotensive rats; 2.5 mg/kg iv, 40 min): 108.8 ± 11.8 mmHg | DBP—diastolic blood pressure (normotensive rats; 2.5 mg/kg iv, 50 min): 89.3 ± 13.4 mmHg | SBP—systolic blood pressure (normotensive rats; 2.5 mg/kg iv, 50 min): 110.0 ± 7.5 mmHg | DBP—diastolic blood pressure (normotensive rats; 2.5 mg/kg iv, 60 min): 89.2 ± 13.9 mmHg | SBP—systolic blood pressure (normotensive rats; 2.5 mg/kg iv, 60 min): 110.5 ± 8.1 mmHg | DBP—diastolic blood pressure (normotensive rats; [4]): 95.7 ± 6.0 mmHg | SBP—systolic blood pressure (normotensive rats; [4]): 122.5 ± 11.9 mmHg | decrease of the systolic blood pressure (normotensive rats; 5 mg/kg iv, 50th min since administration): 13% | DBP—diastolic blood pressure (normotensive rats; 5.0 mg/kg iv, 5 min): 87.7 ± 7.0 mmHg | SBP—systolic blood pressure (normotensive rats; 5.0 mg/kg iv, 5 min): 120.7 ± 9.8 mmHg | DBP—diastolic blood pressure (normotensive rats; 5.0 mg/kg iv, 10 min): 89.3 ± 8.1 mmHg | SBP—systolic blood pressure (normotensive rats; 5.0 mg/kg iv, 10 min): 114.5 ± 9.1 mmHg | DBP—diastolic blood pressure (normotensive rats; 5.0 mg/kg iv, 20 min): 88.5 ± 9.0 mmHg | SBP—systolic blood pressure (normotensive rats; 5.0 mg/kg iv, 20 min): 112.8 ± 10.0 mmHg | DBP—diastolic blood pressure (normotensive rats; 5.0 mg/kg iv, 30 min): 87.8 ± 8.8 mmHg | SBP—systolic blood pressure (normotensive rats; 5.0 mg/kg iv, 30 min): 111.5 ± 10.4 mmHg | DBP—diastolic blood pressure (normotensive rats; 5.0 mg/kg iv, 40 min): 87.8 ± 8.7 mmHg | SBP—systolic blood pressure (normotensive rats; 5.0 mg/kg iv, 40 min): 113.0 ± 11.9 mmHg | DBP—diastolic blood pressure (normotensive rats; 5.0 mg/kg iv, 50 min): 85.8 ± 8.1 mmHg | SBP—systolic blood pressure (normotensive rats; 5.0 mg/kg iv, 50 min): 107.0 ± 12.7 ^a mmHg | DBP—diastolic blood pressure (normotensive rats; 5.0 mg/kg iv, 60 min): 86.7 ± 10.7 mmHg | SBP—systolic blood pressure (normotensive rats; 5.0 mg/kg iv, 60 min): 109.8 ± 12.2 mmHg | influence on the diastolic blood pressure (normotensive rats; 5 mg/kg iv, normotensive rats): did not influence the diastolic blood pressure | Adrenergic Receptors—pKi α1 (α1-adrenergic receptors): 7.41 ± 0.01

Cl.NC(=O)c1ccccc1OCCCCCCN1CCN(c2cccc(Cl)c2)CC1 [JJGW03, 2-{6-[4-(3-chlorophenyl)piperazin-1-ylo]hexoxy}benzamide hydrochloride]
DBP—diastolic blood pressure (normotensive rats; [3]): 89.3 ± 15.6 mmHg | SBP—systolic blood pressure (normotensive rats; [3]): 123.8 ± 17.4 mmHg | DBP—diastolic blood pressure (normotensive rats; 2.5 mg/kg iv, 5 min): 83.3 ± 12.8 mmHg | SBP—systolic blood pressure (normotensive rats; 2.5 mg/kg iv, 5 min): 112.5 ± 13.8 mmHg | DBP—diastolic blood pressure (normotensive rats; 2.5 mg/kg iv, 10 min): 84.8 ± 14.7 mmHg | SBP—systolic blood pressure (normotensive rats; 2.5 mg/kg iv, 10 min): 109.8 ± 13.5 mmHg | DBP—diastolic blood pressure (normotensive rats; 2.5 mg/kg iv, 20 min): 86.0 ± 15.8 mmHg | SBP—systolic blood pressure (normotensive rats; 2.5 mg/kg iv, 20 min): 108.8 ± 15.6 mmHg | DBP—diastolic blood pressure (normotensive rats; 2.5 mg/kg iv, 30 min): 85.5 ± 14.7 mmHg | SBP—systolic blood pressure (normotensive rats; 2.5 mg/kg iv, 30 min): 111.8 ± 20.5 mmHg | DBP—diastolic blood pressure (normotensive rats; 2.5 mg/kg iv, 40 min): 83.7 ± 15.6 mmHg | SBP—systolic blood pressure (normotensive rats; 2.5 mg/kg iv, 40 min): 111.2 ± 22.3 mmHg | DBP—diastolic blood pressure (normotensive rats; 2.5 mg/kg iv, 50 min): 81.2 ± 15.0 mmHg | SBP—systolic blood pressure (normotensive rats; 2.5 mg/kg iv, 50 min): 107.7 ± 19.7 mmHg | DBP—diastolic blood pressure (normotensive rats; 2.5 mg/kg iv, 60 min): 79.5 ± 15.4 mmHg | SBP—systolic blood pressure (normotensive rats; 2.5 mg/kg iv, 60 min): 109.2 ± 21.9 mmHg | DBP—diastolic blood pressure (normotensive rats; [4]): 101.5 ± 6.1 mmHg | SBP—systolic blood pressure (normotensive rats; [4]): 128.5 ± 8.6 mmHg | decrease of the diastolic blood pressure (normotensive rats; 5 mg/kg iv, 5th min after administration): 18% | decrease of the diastolic blood pressure (normotensive rats; 5 mg/kg iv, 10th min after administration): 20% | DBP—diastolic blood pressure (normotensive rats; 5.0 mg/kg iv, 5 min): 83.2 ± 5.0 ^a mmHg | SBP—systolic blood pressure (normotensive rats; 5.0 mg/kg iv, 5 min): 108.0 ± 6.6 ^d mmHg | DBP—diastolic blood pressure (normotensive rats; 5.0 mg/kg iv, 10 min): 81.2 ± 4.0 ^a mmHg | SBP—systolic blood pressure (normotensive rats; 5.0 mg/kg iv, 10 min): 104.3 ± 6.3 ^d mmHg | DBP—diastolic blood pressure (normotensive rats; 5.0 mg/kg iv, 20 min): 82.0 ± 4.2 mmHg | SBP—systolic blood pressure (normotensive rats; 5.0 mg/kg iv, 20 min): 101.3 ± 4.5 ^d mmHg | DBP—diastolic blood pressure (normotensive rats; 5.0 mg/kg iv, 30 min): 83.5 ± 4.3 mmHg | SBP—systolic blood pressure (normotensive rats; 5.0 mg/kg iv, 30 min): 102.3 ± 6.9 ^d mmHg | DBP—diastolic blood pressure (normotensive rats; 5.0 mg/kg iv, 40 min): 85.5 ± 5.8 mmHg | SBP—systolic blood pressure (normotensive rats; 5.0 mg/kg iv, 40 min): 104.3 ± 3.9^b mmHg | DBP—diastolic blood pressure (normotensive rats; 5.0 mg/kg iv, 50 min): 86.7 ± 6.0 mmHg | SBP—systolic blood pressure (normotensive rats; 5.0 mg/kg iv, 50 min): 106.0 ± 7.9 ^c mmHg | DBP—diastolic blood pressure (normotensive rats; 5.0 mg/kg iv, 60 min): 87.5 ± 6.3 mmHg | SBP—systolic blood pressure (normotensive rats; 5.0 mg/kg iv, 60 min): 107.3 ± 6.1 ^b mmHg | decrease of the systolic blood pressure (normotensive rats; 5 mg/kg iv, from the 5th to 60th min after administration): 16–21% | Adrenergic Receptors—pKi α1 (α1-adrenergic receptors): 8.11 ± 0.01

Source: paper PMC9820316, “Novel Arylpiperazine Derivatives of Salicylamide with α1-Adrenolytic Properties Showed Antiarrhythmic and Hypotensive Properties in Rats” (International Journal of Molecular Sciences, 2022)
